Test systems include UACC-257 melanoma; CAKI-1 renal; BT-549 breast; OVCAR-4 ovarian; UO-31 renal; HOP-62 NSCLC; UACC-62 melanoma; NCI-H23 lung; COLO 205 colon; EKVX NSCLC; MDA-N; OVCAR-8 ovarian.
Holding throughout (assay): NCI tumour cell line growth inhibition, 48 h

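Growth conditions: 96-well plates. Treatment: test compound, 48 hours, 5 concentrations. Analysis: linear interpolation between bracketing concentrations; unreached endpoints set to highest concentration. At the GI50, growth is halved. The concentration for full growth arrest is given as TGI.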 Some results are limits rather than exact numbers.

On to `COC(=O)c1cc(NC(=O)Cc2c[nH]c3ccccc23)cn1C`, for which the TGI in the assay with UACC-257 melanoma, with CAKI-1 renal, in the assay on BT-549 breast, in the assay with OVCAR-4 ovarian, in the assay with UO-31 renal and in the assay with HOP-62 NSCLC was over 100 µM throughout. Besides, the TGI in the assay with UACC-62 melanoma, in the assay on NCI-H23 lung, with COLO 205 colon, in the assay on EKVX NSCLC, with MDA-N and in the assay with OVCAR-8 ovarian was over 100 µM each time.

On to `CCOP(=O)(OCC)C(C(=O)OC)C(=O)C(=O)Nc1cccc(O)c1` (stereo unspecified), for which the TGI in the assay on UACC-257 melanoma, in the assay with CAKI-1 renal, in the assay on BT-549 breast, with OVCAR-4 ovarian, in the assay with UO-31 renal and in the assay on HOP-62 NSCLC was over 100 µM in each case. Besides, the TGI with UACC-62 melanoma, with NCI-H23 lung, in the assay with COLO 205 colon, in the assay with EKVX NSCLC, in the assay on MDA-N and in the assay on OVCAR-8 ovarian was over 100 µM each time.

With `CCCSc1ccc2[nH]c(N3C(=O)/C(=C/c4ccc(SC)cc4)N=C3c3ccccc3)cc2c1`, the TGI with UACC-257 melanoma, in the assay on CAKI-1 renal, in the assay with BT-549 breast, with OVCAR-4 ovarian, in the assay on UO-31 renal and in the assay with HOP-62 NSCLC was over 50 µM each time. Besides, the TGI in the assay with UACC-62 melanoma was over 50 µM; in the assay with NCI-H23 lung, over 50 µM; in the assay on COLO 205 colon, over 43.2 µM; in the assay with EKVX NSCLC, over 50 µM; in the assay with MDA-N it was 17.5 µM; in the assay on OVCAR-8 ovarian, over 50 µM.

`C=C1C(=O)O[C@H]2C1C[C@@H](OC(C)=O)/C(C)=C/CC[C@@]1(C)O[C@H]21` (stereo partly specified): the TGI was determined as 19.6 µM in the assay on UACC-257 melanoma; 22.1 µM in the assay on CAKI-1 renal; 19 µM in the assay with BT-549 breast; 28.9 µM in the assay with OVCAR-4 ovarian; 17 µM in the assay with UO-31 renal; 34.5 µM in the assay with HOP-62 NSCLC. In addition, the TGI worked out at 15.6 µM in the assay on UACC-62 melanoma; 37.2 µM in the assay on NCI-H23 lung; 14.2 µM in the assay with COLO 205 colon; 35.2 µM with EKVX NSCLC; 18.7 µM with MDA-N; 32.5 µM with OVCAR-8 ovarian.

Consider `O=C1Nc2nccnc2C(=O)N2CCC[C@@H]12`, for which the TGI in the assay with UACC-257 melanoma, in the assay with CAKI-1 renal, in the assay with BT-549 breast, in the assay on OVCAR-4 ovarian, with UO-31 renal and in the assay with HOP-62 NSCLC was over 100 µM each time. The TGI in the assay on UACC-62 melanoma, with NCI-H23 lung, in the assay with COLO 205 colon, in the assay on EKVX NSCLC, with MDA-N and in the assay with OVCAR-8 ovarian was over 100 µM throughout.

Turning to `Cc1ccc2c(=O)cc(-c3ccc4ccccc4c3)[nH]c2n1`, the TGI was over 100 µM with UACC-257 melanoma; over 100 µM in the assay with CAKI-1 renal; over 100 µM in the assay on BT-549 breast; 93.2 µM in the assay on OVCAR-4 ovarian; over 100 µM in the assay on UO-31 renal; over 100 µM in the assay on HOP-62 NSCLC. Besides, the TGI in the assay on UACC-62 melanoma is 24.1 µM; with NCI-H23 lung it was 28.7 µM; in the assay with COLO 205 colon, 5.55 µM; with EKVX NSCLC it was over 100 µM; in the assay on MDA-N it was 4.69 µM; with OVCAR-8 ovarian it was over 100 µM. For the same molecule, the results for the GI50 in the assay with CAKI-1 renal and in the assay with MDA-N were 5.41 µM and 1.94 µM, respectively.

For the molecule `O=C(/C=C/c1ccccc1)Nc1ccccc1SCCCCl`, the TGI in the assay with UACC-257 melanoma is over 100 µM; with CAKI-1 renal, over 100 µM; in the assay with BT-549 breast, over 36 µM; in the assay on OVCAR-4 ovarian, over 100 µM; in the assay on UO-31 renal, 91.6 µM; in the assay with HOP-62 NSCLC, over 100 µM. In addition, the TGI with UACC-62 melanoma was over 72.7 µM; in the assay with NCI-H23 lung it was 40.7 µM; with COLO 205 colon, 48.5 µM; in the assay with EKVX NSCLC it was over 100 µM; in the assay on MDA-N, 28.6 µM; in the assay on OVCAR-8 ovarian, over 69.8 µM.

For `O=C(c1ccccc1)N1CCC(CC2(c3cc4ccccc4[nH]3)OCCO2)CC1`, the TGI was 51.9 µM with UACC-257 melanoma; over 100 µM in the assay with CAKI-1 renal; over 100 µM in the assay on BT-549 breast; over 100 µM in the assay with OVCAR-4 ovarian; over 100 µM with UO-31 renal; over 100 µM with HOP-62 NSCLC. For the same molecule, the TGI in the assay with UACC-62 melanoma is 39.4 µM; in the assay with NCI-H23 lung it was over 100 µM; in the assay with COLO 205 colon, 40.1 µM; with EKVX NSCLC, over 100 µM; in the assay on MDA-N, 87.5 µM; in the assay with OVCAR-8 ovarian it was over 100 µM.

As for `COc1ccc(OC)c2c1C=CC(Br)=CC2`, the TGI in the assay with UACC-257 melanoma is 0.942 µM; in the assay on CAKI-1 renal it was 0.913 µM; with BT-549 breast it was 0.835 µM; with OVCAR-4 ovarian it was over 1 µM; in the assay with UO-31 renal, over 1 µM; in the assay with HOP-62 NSCLC, 0.915 µM. For the same molecule, the TGI with UACC-62 melanoma was 0.345 µM; in the assay with NCI-H23 lung, over 1 µM; with COLO 205 colon, over 1 µM; with EKVX NSCLC, over 1 µM; with MDA-N it was 0.529 µM; with OVCAR-8 ovarian, over 1 µM.

Take `CCOC(=O)NC(Nc1ccc(F)cc1)(C(=O)OCC)C(F)(F)F` (stereo unspecified): the TGI in the assay on UACC-257 melanoma, with CAKI-1 renal, in the assay with BT-549 breast, in the assay with OVCAR-4 ovarian, in the assay with UO-31 renal and in the assay on HOP-62 NSCLC was over 100 µM each time. For the same molecule, the TGI in the assay with UACC-62 melanoma, in the assay with NCI-H23 lung, in the assay on COLO 205 colon, in the assay on EKVX NSCLC, in the assay with MDA-N and with OVCAR-8 ovarian was over 100 µM throughout.

As for `CCOC(=O)/C=C(/C(=O)OCC)n1ccc(=O)n(Cc2cnnn2COCCOC(C)=O)c1=O`, the TGI was 31.3 µM in the assay on UACC-257 melanoma; 11.4 µM in the assay on CAKI-1 renal; 38.2 µM with BT-549 breast; 41.5 µM with OVCAR-4 ovarian; 29.6 µM in the assay with UO-31 renal; over 100 µM in the assay on HOP-62 NSCLC. Also, the TGI with UACC-62 melanoma was 32.8 µM; in the assay with NCI-H23 lung, 33.3 µM; with COLO 205 colon, 9.73 µM; in the assay with EKVX NSCLC, 33.8 µM; in the assay with MDA-N it was 46.3 µM; with OVCAR-8 ovarian, 30.6 µM.

For the molecule `COC1CC(OC2C(C)OC(OC3C(C)OC(OC4C(C)OC(O[C@H]5CC[C@@]6(C)C(=CC[C@]7(O)[C@@H]6C[C@@H](OC(C)=O)[C@@]6(C)[C@]7(O)CC[C@@]6(O)C(C)=O)C5)CC4OC)CC3OC)CC2OC)OC(C)C1O` (stereo partly specified), the TGI in the assay with UACC-257 melanoma, in the assay with CAKI-1 renal, in the assay on BT-549 breast, with OVCAR-4 ovarian, with UO-31 renal and with HOP-62 NSCLC was over 25 µM throughout. For the same molecule, the TGI in the assay on UACC-62 melanoma, in the assay on NCI-H23 lung, in the assay on COLO 205 colon, with EKVX NSCLC, in the assay on MDA-N and in the assay with OVCAR-8 ovarian was over 25 µM throughout.

Turning to `CC(C)C(OC(=O)c1ccc(NCC2=CC(=O)C=CC2=O)cc1)C(C)C`, the TGI was 25.9 µM with UACC-257 melanoma; 3.02 µM in the assay with CAKI-1 renal; 15.1 µM in the assay with BT-549 breast; 11.4 µM in the assay on OVCAR-4 ovarian; 4.74 µM in the assay on UO-31 renal; 48.3 µM in the assay on HOP-62 NSCLC. For the same molecule, the TGI in the assay with UACC-62 melanoma is 20.3 µM; with NCI-H23 lung, 20.2 µM; with COLO 205 colon, 9.84 µM; with EKVX NSCLC, 29.1 µM; in the assay with MDA-N it was 21.5 µM; in the assay on OVCAR-8 ovarian it was 12.9 µM.

In the case of `O=[S@]1c2ccc3ccccc3c2N[C@@H]2[C@H]1[C@H]1C=C[C@@H]2C1`, the TGI in the assay on UACC-257 melanoma, in the assay with CAKI-1 renal, in the assay with BT-549 breast, in the assay on OVCAR-4 ovarian, in the assay with UO-31 renal and with HOP-62 NSCLC was over 100 µM in each case. Moreover, the TGI in the assay with UACC-62 melanoma is over 100 µM; in the assay on NCI-H23 lung, over 100 µM; in the assay with COLO 205 colon, over 100 µM; in the assay on EKVX NSCLC it was over 100 µM; in the assay on MDA-N, 60.8 µM; in the assay with OVCAR-8 ovarian, over 100 µM.

As to `O=Cc1cc(C(=O)OCc2ccccc2)n(S(=O)(=O)c2ccccc2)c1`, the TGI in the assay with UACC-257 melanoma is 64 µM; in the assay on CAKI-1 renal it was 55.2 µM; in the assay with BT-549 breast, 33.9 µM; with OVCAR-4 ovarian, over 100 µM; with UO-31 renal, 44.1 µM; in the assay with HOP-62 NSCLC, 33.7 µM. Moreover, the TGI in the assay with UACC-62 melanoma was 31.6 µM; in the assay with NCI-H23 lung it was 60.9 µM; with COLO 205 colon it was 55.1 µM; with EKVX NSCLC it was 94.4 µM; in the assay on MDA-N, 30.3 µM; in the assay with OVCAR-8 ovarian it was over 100 µM.

Turning to `Cc1c(N=C/C=C/c2ccccc2)c(=O)n(-c2ccccc2)n1C`, the TGI was over 100 µM in the assay on UACC-257 melanoma; over 100 µM in the assay with CAKI-1 renal; 58.1 µM in the assay on BT-549 breast; 40.9 µM in the assay with OVCAR-4 ovarian; over 100 µM with UO-31 renal; 95.8 µM in the assay on HOP-62 NSCLC. Besides, the TGI in the assay with UACC-62 melanoma is 36 µM; with NCI-H23 lung, 69.8 µM; in the assay with COLO 205 colon it was over 100 µM; in the assay on EKVX NSCLC it was 81.8 µM; in the assay on MDA-N, 54 µM; in the assay with OVCAR-8 ovarian, 54.4 µM.

On to `O=[N+]([O-])c1ccc(-n2nc3ccc4c(no[n+]4[O-])c3n2)cc1`, for which the TGI in the assay with UACC-257 melanoma, with CAKI-1 renal, in the assay with BT-549 breast, in the assay on OVCAR-4 ovarian, in the assay with UO-31 renal and with HOP-62 NSCLC was over 100 µM each time. Further, the TGI with UACC-62 melanoma, with NCI-H23 lung, with COLO 205 colon, in the assay with EKVX NSCLC, in the assay on MDA-N and in the assay with OVCAR-8 ovarian was over 100 µM throughout.

For the origin of these results see PubChem BioAssay (NCI).
